These results are taken from ChEMBL document CHEMBL5120769, “Sclerotiamides C-H, Notoamides from a Marine Gorgonian-Derived Fungus with Cytotoxic Activities” (J Nat Prod, 2022).

Experiment [1] relates to HepG2. In words: Cytotoxicity against human HepG2 cells assessed as reduction in cell viability by MTT assay. The class given is functional, cell-based. (In general: Formazan colour is commonly taken as a measure of viable cells.)
Experiment [2] has as its system A549. As to the kind of experiment: Cytotoxicity against human A549 cells assessed as reduction in cell viability by MTT assay. The class given is functional, cell-based.
Experiment [3] relates to HeLa. As to the kind of experiment: Cytotoxicity against human HeLa cells assessed as reduction in cell viability by MTT assay. The class given is functional, cell-based.
Experiment [4] has as its system SMMC-7721. In words: Cytotoxicity against human SMMC-7721 cells assessed as reduction in cell viability by MTT assay. Type of experiment: functional, cell-based.
For experiment [5], the system named is HeLa. In words: Activation of MAPK signalling pathway in human HeLa cells assessed as increase in ERK phosphorylation level at 1 to 10 uM after 24 hrs by western blot analysis. Type of experiment: cell-based. The following applies: filed as activator, dose 1-10 µM, DDE = dose-dependent effect. (Immunoblotting shows a protein as a band on a membrane.)
The subject of experiment [6] is HeLa. As to the kind of experiment: Induction of mitochondrial membrane potential loss in human HeLa cells at 1 to 10 uM after 24 hrs by JC1 staining based flow cytometric analysis. The class given is functional, cell-based. The following applies: dose 1-10 µM.
The subject of experiment [7] is HeLa. In words: Induction of apoptosis in human HeLa cells assessed as increase in early apoptotic cells at 1 to 10 uM after 24 hrs by Annexin V staining based flow cytometric analysis. Type of experiment: functional, cell-based. The following applies: dose 1-10 µM.
Experiment [8] deals with HeLa. In words: Induction of apoptosis in human HeLa cells assessed as increase in cytochrome C protein expression at 1 to 10 uM after 24 hrs by Western blot analysis. Type of experiment: functional, cell-based. The following applies: dose 1-10 µM, DDE = dose-dependent effect.
In experiment [9] the test system is HeLa. As to the kind of experiment: Induction of apoptosis in human HeLa cells assessed as increase in late apoptotic cells at 1 to 10 uM after 24 hrs by Annexin V staining based flow cytometric analysis. Type of experiment: functional, cell-based. Conditions: dose 1-10 µM.
For experiment [10], the system named is HeLa. As to the kind of experiment: Inhibition of colony formation in human HeLa cells assessed as reduction in cell colonies at 4 uM after 10 days by crystal violet staining based assay relative to control. Type of experiment: functional. The following applies: time 10.0 day, DDE = dose-dependent effect.
The subject of experiment [11] is HeLa. In words: Activation of MAPK signalling pathway in human HeLa cells assessed as increase in p38 phosphorylation level at 1 to 10 uM after 24 hrs by western blot analysis. Type of experiment: cell-based. The following applies: filed as activator, dose 1-10 µM, DDE = dose-dependent effect.
For experiment [12], the system named is HeLa. In words: Induction of apoptosis in human HeLa cells assessed as decrease in Bcl-2 protein expression at 1 to 10 uM after 24 hrs by Western blot analysis. The following applies: dose 1-10 µM, DDE = dose-dependent effect. The class given is functional, cell-based.
Experiment [13] concerns HeLa. As to the kind of experiment: Induction of cell cycle arrest in human HeLa cells assessed as accumulation at G2 phase at 1 to 5 uM after 24 hrs by Propidium iodide staining based flow cytometric analysis (reference value: 23%). The class given is functional. The following applies: dose 1-5 µM. For orientation: Flow cytometry measures light scatter and fluorescence of single cells or particles in a stream.

For experiment [14], the system named is HeLa. As to the kind of experiment: Induction of apoptosis in human HeLa cells assessed as increase in p53 protein expression at 1 to 10 uM after 24 hrs by Western blot analysis. The class given is functional, cell-based. Conditions: dose 1-10 µM, DDE = dose-dependent effect.
Experiment [15] relates to HeLa. As to the kind of experiment: Activation of MAPK signalling pathway in human HeLa cells assessed as increase in JNK phosphorylation level at 1 to 10 uM after 24 hrs by western blot analysis. The following applies: filed as activator, dose 1-10 µM, DDE = dose-dependent effect. The class given is cell-based.
The subject of experiment [16] is HeLa. In words: Induction of ROS generation in human HeLa cells at 1 to 10 uM after 24 hrs by DCFH-DA staining based fluorescence microscopic assay. The class given is functional, cell-based. The following applies: dose 1-10 µM.
For experiment [17], the system named is HeLa. As to the kind of experiment: Induction of apoptosis in human HeLa cells assessed as increase in cleaved PARP protein expression at 1 to 10 uM after 24 hrs by Western blot analysis. Type of experiment: functional, cell-based. The following applies: dose 1-10 µM, DDE = dose-dependent effect.
In experiment [18] the test system is HeLa. In words: Induction of apoptosis in human HeLa cells assessed as increase in caspase 3 protein expression at 1 to 10 uM after 24 hrs by Western blot analysis. The class given is functional, cell-based. Conditions: dose 1-10 µM, DDE = dose-dependent effect.
Experiment [19] relates to HeLa. In words: Induction of apoptosis in human HeLa cells assessed as nuclear condensation at 1 to 10 uM after 24 hrs by Hoechst 33342 staining based fluorescence microscopic assay. The class given is functional, cell-based. The following applies: dose 1-10 µM.
The subject of experiment [20] is HeLa. As to the kind of experiment: Induction of apoptosis in human HeLa cells assessed as increase in Bax protein expression at 1 to 10 uM after 24 hrs by Western blot analysis. The following applies: dose 1-10 µM, DDE = dose-dependent effect. Type of experiment: functional, cell-based.

The IC50 is the point on the concentration scale where inhibition reaches its midpoint.

The source made the active and inactive calls. The calls are words filed in the database; no cut-off is given here. Some results are limits rather than exact numbers.

On to `CC1(C)C=Cc2c(ccc3c4c([nH]c23)C(C)(C)[C@@H]2C[C@]35CCCN3C(=O)[C@]23[C@H]4NC(C)(C)N3C5=O)O1`, for which the IC50 in experiment [1], in [2], in experiment [3] and in [4] was above 10 µM each time.

As to `CC1(C)C=Cc2c(ccc3c2[N+]([O-])=C2C(C)(C)C4C[C@]56CCCN5C(=O)C4(NC6=O)[C@@H](O)[C@@]23O)O1` (some centres undefined), the IC50 in experiment [1], in [2], in experiment [3] and in experiment [4] was above 10 µM each time.

Consider `CC1(C)C=Cc2c(ccc3c4c(n(O)c23)C(C)(C)[C@@H]2C[C@]35CCCN3C(=O)[C@]23[C@H]4NC(C)(C)N3C5=O)O1`, for which the Activity entry in experiment [5] is “Dde”; in experiment [8], “Dde”; in [11] it was “Dde”; in [12], “Dde”; in [13] it was 38%; in experiment [14], “Dde”. Moreover, the Activity result in experiment [15], in experiment [17], in experiment [18] and in experiment [20] was “Dde” throughout. Also, the result in experiment [6], in experiment [7], in experiment [9], in [16] and in experiment [19] was Active. The IC50 in experiment [1] amounted to 1.8 µM; in [2], 1.6 µM; in [3], 1.7 µM; in experiment [4], 1.5 µM. In addition, the inhibition entry in experiment [10] was “Dde”.

On to `CC1(C)C=Cc2c(ccc3c2N2O[C@@H]4O[C@@]2(C3=O)C(C)(C)C2C[C@]35CCCN3C(=O)C24NC5=O)O1` (some centres undefined), for which the IC50 in experiment [1], in experiment [2], in [3] and in experiment [4] was above 10 µM throughout.

`CC(=O)O[C@H]1C(=O)[C@@]2(C)[C@H]([C@H](OC(=O)c3ccccc3)[C@]3(O)C[C@H](OC(=O)[C@H](O)[C@@H](NC(=O)c4ccccc4)c4ccccc4)C(C)=C1C3(C)C)[C@]1(OC(C)=O)CO[C@@H]1C[C@@H]2O` [PACLITAXEL]: the IC50 in experiment [1] was 0.06 µM; in [2] it was 0.05 µM; in experiment [3], 0.05 µM; in experiment [4], 0.07 µM.

Take `Cc1c(O)c(C)c2oc(=O)c3c(c2c1C)O[C@@]12C(=[N+]([O-])c4c1ccc1c4C=CC(C)(C)O1)C(C)(C)[C@@H]1C[C@]45CCCN4C(=O)[C@]1(NC5=O)[C@H]32`: the IC50 was found to be 8.1 µM in experiment [1], 7.8 µM in [2], 7.9 µM in experiment [3] and 6.7 µM in experiment [4].

Regarding `Cc1c(O)c(C)c2oc(=O)c(C3=C4C(=[N+]([O-])c5c4ccc4c5C=CC(C)(C)O4)C(C)(C)[C@@H]4C[C@]56CCCN5C(=O)[C@]34NC6=O)c(O)c2c1C`, the IC50 in [1], in experiment [2], in experiment [3] and in experiment [4] was above 10 µM throughout.
